One assay deals with mouse embryos. In words: Embryos of pregnant MLC1/3F-nLacZ mice exposed in utero (somitogenesis, muscle gene expression). In kind it is in vivo.
Another assay concerns E2F-responsive construct. In words: Luciferase assay of E2F-responsive construct. In kind it is cell-based, mouse. Conditions: cells exposed to DI in DM. The procedure:
FIGS. 2A-D are graphs showing DI activation muscle-specific transcription in skeletal muscle cells. […] Luciferase activity was measured in non-treated cells cultured in either GM (GM) or DM (DM). […] The reporter activity was also analyzed in cells differentiated in the absence of TSA (DM) Mouse muscle myoblast C2C12 cells (obtained from the American Type Culture Collection, ATCC CRL-1772) and CC42 cells (from Dr. Kenneth Walsh, Tufts University School of Medicine) were cultured in DMEM supplemented with 20% fetal bovine serum, 2 mM glutamine and 1× kanamycin (growth medium, GM). Cellular differentiation was induced with DMEM supplemented with 2% horse serum and 1× insulin, transferring, selenium (Life Technologies). Human skeletal myocytes (CC-2561) were purchased from Clonetics. Stable C2C12 cell lines with integrated reporters are described in Wu, Z., et al., Mol Cell Biol 20:3951-64 (2000). The MCK-luc, 4RE-luc, MEF2 reporter constructs have been described in Puri, P. L., et al., EMBO Journal 16:369-83 (1997a) and Sartorelli, V., et al., Molecular & Cellular Biology 17:1010-26 (1997). The E2F-luc plasmid is described in […]., et al., Genes Dev 7:1850-61 (1993). […] Following transfections, luciferase activity was determined using the Dual-Luciferase reporter assay system (Promega) on a microtiter luminescence detection system (MLX, Dynex).

Assay [1] concerns histones of the MCK enhancer. In words: Chromatin immunoprecipitation with anti-acetyl-histone H4. In kind it is cell-based, mouse. Conditions: myoblasts exposed to TSA in GM 16 hours, then DM 24 hours. As to the method: In FIG. 3A, MyoD acetylation in undifferentiated C2C12 myoblasts (GM) untreated (−) or treated with either sodium butyrate (Butyr.) or TSA and in differentiated myotubes (abbrev. DM in FIG. 3A, but not to be confused with the abbreviation for “differentiation medium” as used elsewhere herein) was measured by ^3H incorporation of exogenously transfected Flag-tagged MyoD following metabolic labeling with ^3H sodium acetate as described in Sartorelli, V., et al., Molecular Cell 4:725-34 (1999). […] Chromatin was immunoprecipitated with antibodies against acetyl-histone 4 (AcH4) or IgG (as a control). Purified DNA from anti-AcH4 immunoprecipitated chromatin was analyzed by PCR using primers recognizing GAPDH promoter and MCK enhancer as described in Example 1. Unbound DNA (lanes 2 and 3, top panel) is an aliquot of chromatin not immunoprecipitated by anti-AcH4 antibody and amplified with GAPDH primers. Input (lanes 2 and 3, bottom panel) is an aliquot (1%) of the chromatin analyzed before the immunoprecipitation to quantify the amount of DNA present in different samples. […] Myoblasts were then formaldehyde cross-linked and processed. […]
The MCK primers amplify nucleotides −1229 to −1007 of the MCK enhancer, while the GAPDH primers amplify nucleotides −1030 to −721. The PCR products were analyzed on 6% non-denaturing polyacrylamide gels. […]

[2] abbreviates: i.p. to pregnant mice at E 8.5, sacrificed at 10.5, 0.5 to 1 mg/Kg TSA, 200 mg/Kg VPA.
Where [3] appears, read: treated at E 8.5, sacrificed at E 9.5.

This is an account of results in patent US7795208B2, “Methods of using deacetylase inhibitors to promote cell differentiation and regeneration” (The Salk Institute for Biological Study, priority 2001, dated 2010).

Structures are written as SMILES. “And” between values parts separate entries of the source, which are not always exact repeats. Identical values can stand only once.

Description for mouse embryos: MLC1/3F-nLacZ pregnant mice (E 8.5) received intra peritoneal injection of 15 μg of TSA (WAKO chemicals, Neuss Germany) or VPA (Sigma) at E 8.5 and E 9.5 as described in Faiella, A., et al., Hum Mol Genet 9:227-36 (2000), and Nervi, C., et al., Cancer Res 61:1247-9 (2001). VPA was dissolved in distilled water and administered at doses of 6 mg/mice (about 150 μg/ml) every 12 h at E 8.5, E 9, E 9.5, E 10 as described in Faiella et al. (2000). […] Mice were sacrificed at E 10.5, and the embryos were observed under a dissecting stereo-microscope to evaluate their viability, presence of external malformations, and number of somites. Embryos were fixed in 4% paraformaldehyde for histology and X-Gal staining or immunocytochemistry using antibodies against MyoD and myosin heavy chains as described in Tajbakhsh, S., et al., Neuron 13:813-21 (1994).
DI was administered intraperitoneally to pregnant mice (at a concentration of 0.5 to 1 mg/Kg for TSA and 200 mg/Kg for VPA) at post-implantation stages of E 8.5, and the pregnant mice were sacrificed at 10.5, when MyoD expression is clearly detectable in the myotomes. […] In Table 2, Somites of MLC1/3F-nLacZ mice (injected at day 8.5 and sacrificed at day 10.5) were scored after staining the embryos to detect β-galactosidase activity.

As for `CC(/C=C/C(=O)NO)=C\[C@@H](C)C(=O)c1ccc(N(C)C)cc1` [TSA, trichostatin A], the “level of MLC-lacZ transgene expression” value in the assay with mouse embryos (E 10.5 embryos, vs control embryos) is “higher level of MLC-lacZ transgene expression”. For the same compound, in the assay with mouse embryos (MLC1/3F-nLacZ mice injected at day 8.5, sacrificed at day 10.5, TSA [1 mg/ml] (20 ul + 380 ul PBS), VPA 155 mM, one value per embryo, PBS controls 25-32), the “# somites (β-galactosidase staining)” value is 32 and 37 and 34 and 36 and 33. In the assay with mouse embryos (animals exposed to a DI), the Notch transcripts result is “increased”. Moreover, the “levels of MHC in exposed embryos (Western blot)” value in the assay with mouse embryos (extracts of total embryos) was “augmented the levels of MHC”. In the assay with mouse embryos (setting [2]), the “number of MLC expressing somites” value is on record as “consistently increased” and the “number of MyoD expressing myotomes” value is “consistently increased”. Besides, in the assay with mouse embryos (setting [3]), the “acetylation of histone H4 in embryos” value is recorded as “increased acetylation of histone H4”; the “embryo size vs control embryos” value was “modestly and consistently larger than control embryos”; the “increase in number of somites vs control embryos” value is “+2 to +6”; the “number of somites expressing Myf-5” value is “increased”. The “transcription driven from an E2F-responsive construct” value with E2F-responsive construct is recorded as “stimulated”. In addition, the “histone H4 acetylation of the MCK enhancer (ChIP)” value in assay [1] is “histone hyperacetylation of the MCK enhancer”.
